From article PMC9916969 (International Journal of Molecular Sciences, 2023)
Where two headings read alike, the source gives them in different places.

Legend:
equine serum BChE = biological target: T1, equine serum BChE (Equus caballus, UniProt P81908); experiment: biochemical; details: mean ± SEM, n = 3, read-out: Inhibitory activity against BChE, IC50
T1 construct: human erythrocyte AChE, equine serum BChE, and porcine liver CES were used; purchased Sigma-Aldrich; host or cells: equine serum (tissue-derived)
T1 sequence (P81908 whole entry): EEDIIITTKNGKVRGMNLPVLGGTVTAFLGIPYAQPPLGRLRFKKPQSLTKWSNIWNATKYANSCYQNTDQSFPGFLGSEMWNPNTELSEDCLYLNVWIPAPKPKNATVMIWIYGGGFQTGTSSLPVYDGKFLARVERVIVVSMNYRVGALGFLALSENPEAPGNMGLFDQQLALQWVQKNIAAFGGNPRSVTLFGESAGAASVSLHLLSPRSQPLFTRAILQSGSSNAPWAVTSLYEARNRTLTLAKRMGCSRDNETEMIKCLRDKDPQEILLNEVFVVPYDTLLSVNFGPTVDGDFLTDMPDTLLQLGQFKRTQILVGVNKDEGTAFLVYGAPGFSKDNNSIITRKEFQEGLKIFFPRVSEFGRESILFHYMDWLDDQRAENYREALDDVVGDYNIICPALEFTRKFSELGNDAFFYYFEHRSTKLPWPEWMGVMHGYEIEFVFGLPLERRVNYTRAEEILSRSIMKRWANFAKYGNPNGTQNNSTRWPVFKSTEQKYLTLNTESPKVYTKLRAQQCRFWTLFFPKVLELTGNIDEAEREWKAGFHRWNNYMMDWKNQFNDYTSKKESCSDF
Excerpt: (§1) Assessment of the esterase profile of new potential anti-AD molecules enables the estimation of both the primary pharmacological effects of the tested compounds—their inhibition of AChE and BChE—and their possible unwanted side effect—inhibition of CES, which hydrolyzes numerous ester-containing drugs. For the esterase profile evaluation, human erythrocyte AChE, equine serum BChE, and porcine liver CES were used. These sources of BChE and CES were employed because of their relatively low cost, high sequence identity to human enzymes, and the exploratory character of this work.
(§2) Chromophore absorbances were measured with a FLUOStar Optima microplate reader (BMG Labtech, Ortenberg, Germany). […] Initially, we used a single concentration of 20 µM for all compounds.

porcine liver CES = experiment: In vitro CES inhibition (4-NPA substrate); format: biochemical; details: compound 20 µM, n.a. = not active
Excerpt: as §1, §2

AChE = biological target: T2, AChE (Homo sapiens, UniProt P22303); experiment: Kinetic study of AChE inhibition (Lineweaver-Burk); format: biochemical; details: for αKi (non-competitive inhibition constant), AChE: mixed-type inhibition, mean ± SEM; for Ki: read-out: Ki (competitive inhibition constant), AChE
T2 construct: human erythrocyte AChE, equine serum BChE, and porcine liver CES were used; purchased Sigma-Aldrich; host or cells: human erythrocytes (tissue-derived)
T2 sequence (P22303 32-617 isoform P22303-2 limits assumed): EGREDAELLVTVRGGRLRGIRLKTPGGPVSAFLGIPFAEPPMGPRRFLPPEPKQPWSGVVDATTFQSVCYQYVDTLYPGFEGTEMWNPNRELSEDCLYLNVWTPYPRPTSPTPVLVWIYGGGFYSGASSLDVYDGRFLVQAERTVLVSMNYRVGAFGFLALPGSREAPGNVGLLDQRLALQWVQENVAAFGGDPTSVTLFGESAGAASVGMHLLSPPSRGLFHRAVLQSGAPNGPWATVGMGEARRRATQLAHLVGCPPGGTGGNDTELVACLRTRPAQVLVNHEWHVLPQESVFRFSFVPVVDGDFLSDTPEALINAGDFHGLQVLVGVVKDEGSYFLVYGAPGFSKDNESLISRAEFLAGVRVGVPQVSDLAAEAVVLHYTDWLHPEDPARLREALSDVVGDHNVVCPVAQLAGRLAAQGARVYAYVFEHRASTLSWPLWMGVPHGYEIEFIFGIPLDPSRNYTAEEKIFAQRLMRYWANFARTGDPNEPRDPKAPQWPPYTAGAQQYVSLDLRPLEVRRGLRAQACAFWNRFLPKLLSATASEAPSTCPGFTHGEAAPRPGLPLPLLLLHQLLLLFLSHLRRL
Protocol: (§3) We assessed the mechanisms of AChE and BChE inhibition by performing a thorough analysis of enzyme kinetics. After a 5 min incubation at 25 °C (for temperature equilibration) with three increasing concentrations of inhibitor and six decreasing substrate concentrations, the residual enzyme activity was measured as described above for enzymatic assays.

eqBChE = biological target: T3, eqBChE (Equus caballus, UniProt P81908); experiment: Kinetic study of BChE inhibition (Lineweaver-Burk); format: biochemical; details: for Ki: read-out: Ki (competitive inhibition constant), eqBChE
T3 construct: human erythrocyte AChE, equine serum BChE, and porcine liver CES were used; purchased Sigma-Aldrich; host or cells: equine serum (tissue-derived)
T3 sequence (P81908 whole entry): as the sequence (P81908 whole entry) above
Protocol: Similar results were obtained for other tested compounds (Figures S61 and S62). The obtained values of inhibition constants (Ki = competitive component and αKi = non-competitive component) are shown in Table 2.
as §3

EeAChE PAS = biological target: T4, EeAChE PAS (Electrophorus electricus, UniProt O42275); format: binding; details: compound 20 µM; EeAChE 7 µM; propidium iodide 8 µM
T4 construct: The enzyme was electric eel AChE (EeAChE type VI-S, lyophilized powder, Sigma-Aldrich); purchased Sigma-Aldrich type VI-S; host or cells: electric eel (tissue-derived)
T4 sequence (O42275 24-633): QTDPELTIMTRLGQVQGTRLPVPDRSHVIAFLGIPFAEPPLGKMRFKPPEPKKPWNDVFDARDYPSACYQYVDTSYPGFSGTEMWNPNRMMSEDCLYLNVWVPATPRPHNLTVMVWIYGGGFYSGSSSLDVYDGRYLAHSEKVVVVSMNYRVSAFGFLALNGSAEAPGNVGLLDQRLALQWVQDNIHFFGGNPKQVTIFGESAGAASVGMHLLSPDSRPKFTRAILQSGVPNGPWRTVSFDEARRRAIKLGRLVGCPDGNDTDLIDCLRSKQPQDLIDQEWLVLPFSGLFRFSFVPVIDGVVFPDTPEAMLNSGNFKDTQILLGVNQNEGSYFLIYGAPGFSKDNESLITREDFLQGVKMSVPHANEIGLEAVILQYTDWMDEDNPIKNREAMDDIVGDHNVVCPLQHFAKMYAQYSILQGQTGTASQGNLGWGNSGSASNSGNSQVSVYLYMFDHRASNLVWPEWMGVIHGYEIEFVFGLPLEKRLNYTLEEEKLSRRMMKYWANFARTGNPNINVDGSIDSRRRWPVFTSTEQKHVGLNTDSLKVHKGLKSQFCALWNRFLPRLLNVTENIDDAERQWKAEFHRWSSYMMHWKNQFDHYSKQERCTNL
Excerpt: This method is widely used as a screening approach to assess the potential ability of compounds to block AChE-induced β-amyloid aggregation. This is because when the compounds bind to the AChE PAS, they prevent the binding of β-amyloid, thereby inhibiting its aggregation.
The enzyme was electric eel AChE (EeAChE type VI-S, lyophilized powder, Sigma-Aldrich). We selected this source of AChE for consistency with our other reports and because of the purity, specific activity, and lower cost compared to human AChE.
Propidium iodide (final concentration 8 μM) was then added for a further 15 min incubation, and the fluorescence spectrum was taken (530 nm excitation and 600 nm emission) using a FLUOStar Optima microplate reader. The same concentration of propidium iodide in the Tris buffer was used as the blank. Triplicate determinations were recorded and the results were calculated via the following equation:% Displacement = 100 − (IFAChE+ Propidium + inhibitor/IFAChE + Propidium) × 100, where IFAChE + Propidium = fluorescence intensity of propidium iodide associated with AChE in the absence of the test compound (taken as 100%), and IFAChE + Propidium + inhibitor = fluorescence intensity of propidium iodide associated with AChE in the presence of the test compound.

β-amyloid (1–42) (Aβ42) = β-amyloid (1–42) (Aβ42) (Homo sapiens, UniProt P05067); experiment: Inhibition of Aβ42 self-aggregation (thioflavin T); format: biochemical; details: read-out: Inhibition of Aβ42 Self-Aggregation
Sequence of β-amyloid (1–42) (Aβ42) (P05067 672-713 limits assumed): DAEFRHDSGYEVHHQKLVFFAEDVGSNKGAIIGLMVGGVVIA
Protocol: The inhibitory activity of tested hybrids against the self-aggregation of Aβ42 was determined in vitro using the thioflavin T (ThT) fluorimetric assay. According to [84], the ThT test is ideal for preliminary screening of inhibitors of Aβ42 self-aggregation, as it enables the quantitative testing of large numbers of compounds within a relatively short time.
The influence of the inhibitory effect of the test compounds toward Aβ42 self-aggregation was determined using the thioflavin T (ThT) fluorescence method with minor modifications. This assay is based on a specific interaction between the fluorescent dye thioflavin T that binds to the β-sheets of assembled amyloid fibrils leading to a significant increase in fluorescence signal. Therefore, the decrease in ThT fluorescence correlates with the ability of the studied compounds to inhibit the formation of amyloid aggregates.
One mg of lyophilized HFIP-pretreated Aβ42 from BACHEM (Bubendorf, Switzerland) was dissolved in DMSO to obtain a stable initial solution ([Aβ42] = 500 μM); then it was aliquoted and stored at −20 °C.
For the measurement of Aβ42 self-aggregation and amyloid fibril inhibition studies by the tested compounds, aliquots of 500 μM Aβ42 stock solution were diluted in 215 mM Na-phosphate buffer pH = 8.0 to a final concentration of 50 μM Aβ42. Then the samples were incubated for 24 h at 37 °C without stirring in the absence (base level of Aβ42 self-aggregation, control) or presence of the test compounds. Myricetin and propidium iodide were used as reference compounds (positive controls). All compounds were used in a concentration of 100 µM. To quantify Aβ42 fibril formation, after incubation, 5 μM ThT in 50 mM glycine-NaOH buffer pH 8.5 was added to the solutions to a final concentration of 4 μM ThT and the fluorescence was measured at 440 nm (excitation) and 485 nm (emission). Analyses were performed with a FLUOStar Optima microplate reader (LabTech, Ortenberg, Germany). The blanks consisted of 215 mM Na-phosphate buffer, pH = 8.0, 20% (v/v) DMSO or test compounds, respectively. Each assay was run in triplicate.

[1] = ABTS radical cation scavenging assay; set-up: key to ABTS^•+ Scavenging Activity, TEAC: TEAC: ratio of compound slope to Trolox slope (Trolox equivalents); details: 1 h incubation
Protocol: In the ABTS assay, the dark-green ABTS cation-radical (ABTS^•+) is quenched by interaction with AOs. The consequent decrease in absorbance is followed spectrophotometrically per the previously described method.
Radical scavenging activity of the compounds was assessed using the ABTS radical cation (ABTS^•+) decolorization assay with some modifications. ABTS (2,2′-azinobis-(3-ethylbenzothiazoline-6-sulfonic acid) was purchased from Tokyo Chemical Industry Co., Ltd. (Tokyo, Japan); potassium persulfate (dipotassium peroxodisulfate), Trolox (6-hydroxy-2,5,7,8-tetramethylchroman-2-carboxylic acid), and HPLC-grade ethanol and DMSO were obtained from Sigma-Aldrich (Saint Louis, MO, USA). Aqueous solutions were prepared using deionized water. All tested compounds were dissolved in DMSO.
The solution of cation radical ABTS^•+ was produced by incubation of an aqueous solution of 7 mM ABTS and 2.45 mM potassium persulfate solution in equal quantities for 12–16 h at room temperature in the dark. Radical scavenging capacity of the compounds was analyzed by mixing 10 μL of compound with 240 μL of ABTS^•+ working solution in ethanol (100 μM final concentration). The reaction was monitored for an hour at 30 °C with an interval of 10 min. Data are given for 1 h of incubation of compounds with ABTS^•+. The reduction in absorbance was measured spectrophotometrically at 734 nm using an xMark microplate UV/VIS spectrophotometer (Bio-Rad, Hercules, CA, USA). Ethanol blanks were run in each assay. Values were obtained from five replicates of each sample and three independent experiments.
The standard AO Trolox was used as a reference compound. AO capacity as Trolox equivalent (TEAC) values was determined as the ratio between the slopes obtained from the linear correlation of the ABTS radical absorbance with the concentrations of tested compounds and Trolox. Ascorbic acid was used as a positive control. […]. The compounds were tested in the concentration range of 0.5–100 µM.

human erythrocyte AChE = biological target: T5, human erythrocyte AChE (Homo sapiens, UniProt P22303); experiment: biochemical; details: mean ± SEM, n = 3, read-out: Inhibitory activity against AChE, IC50
T5 construct: human erythrocyte AChE, equine serum BChE, and porcine liver CES were used; purchased Sigma-Aldrich; host or cells: human erythrocytes (tissue-derived)
T5 sequence (P22303 32-617 isoform P22303-2 limits assumed): as the sequence (P22303 32-617 isoform P22303-2 limits assumed) above
Excerpt: as §1, §2

in vitro = format: cell-based; details: mouse
Protocol: […]. Accordingly, in the present work, we paid special attention to the study of the cytotoxic activity of compounds on primary cultures of mouse hepatocytes using standard MTT methodology.
The cytotoxicity of the compounds was evaluated using a primary culture of mouse hepatocytes isolated at the Center for Biotechnology and Bioengineering, Ural Federal University, Ekaterinburg, Russia, according to the standard method. Cells were seeded in 96-well plates in the inoculum dose of 1 × 10^4 cells/mL and cultured for 24 h in Dulbecco’s Modified Eagle Medium (DMEM), with 1% (w/v) glutamine in the presence of 10% (v/v) fetal bovine serum and gentamicin (50 mg/L) at 37 °C, with a humidified atmosphere of 5% (v/v) CO2. Cell viability was assessed using the standard MTT assay. The compounds were dissolved in DMSO and then in a nutrient medium, after which they were added to the wells with cells at final concentrations of 10^−7, 10^−6, 10^−5, and 10^−4 M. Hepatocytes were exposed to test compounds for 24 h at 37 °C, 95% relative humidity and 5% (v/v) CO2 atmosphere. After incubation, the medium was replaced with 100 μL of fresh medium containing MTT (0.5 mg/mL). The plates were then incubated at 37°C in a CO2 incubator for 2 h. Then the medium with MTT was removed and DMSO was added to dissolve the formazan crystals.
The results of the MTT assay were evaluated on a Tecan Infinite M200 PRO (Tecan Austria GmbH, Grödig, Austria) plate spectrophotometer at 570 nm by comparing the optical density of a formazan solution in the assay and control wells. The cell viability was expressed as the percentage of untreated control. The results were obtained from three independent experiments performed in six replicates. The IC50 (μM) values were calculated by the AAT Bioquest-calculator: (https://www.aatbio.com/tools/ic50-calculator, accessed on 1 December 2022) and expressed as a mean ± standard error of the mean (SEM). Statistical analysis was carried out using Microsoft Excel 2007 (Microsoft Corporation, Redmond, WA, USA) and Statistica 2009 (Tulsa, OK, USA) programs.

FRAP assay = details: Trolox equivalents; 60 min, 37 °C; n.a. = not active
Protocol: The Ferric Reducing Antioxidant Power (FRAP) test involves reduction of the ferric 2,4,6-tripyridyl-s-triazine complex [Fe(TPTZ)2]^3+ to an intense-blue ferrous complex [Fe(TPTZ)2]^2+ [92], as previously reported. Results are given as Trolox Equivalents (TE).
The FRAP (ferric reducing antioxidant power) assay proposed by Benzie and Strain [92] was modified to be performed in 96-well microplates as described in detail in [53]. The FRAP reagent contained 2.5 mL of 10 mM TPTZ (2,4,6-tris(2-pyridyl)-s-triazine, Sigma-Aldrich) solution in 40 mM HCl, 2.5 mL of 20 mM FeCl3 (Sigma-Aldrich) in distilled water and 25 mL of 0.3 M acetate buffer (pH 3.6). Aliquots of 10 µL of the test compound dissolved in DMSO (0.5 mM) were placed in quadruplicate. Absorbance was measured at a wavelength of 593 nm after 60 min incubation at 37 °C. In each case, Trolox was used as a reference compound to obtain the standard curve. The AO activity was calculated with respect to the activity of Trolox and expressed as Trolox equivalents (TE)—the values calculated as the ratio of the concentrations of Trolox and the test compound resulting in the same effect on ferric reducing activity.

[2] = mixed-type inhibition, mean ± SEM
[3] = Aβ42 50 µM, compound 100 µM, 24 h, 37 °C, thioflavin T

Compound	IC50 (equine serum BChE) [nM]	Inhibitory activity against CES, inhibition at 20 µM (porcine liver CES) [%]	αKi (non-competitive inhibition constant), AChE (AChE) [µM]	αKi (non-competitive inhibition constant), eqBChE (eqBChE; [2]) [µM]	Ki (eqBChE; [2]) [nM]	Propidium Displacement from EeAChE PAS (EeAChE PAS) [%]	inhibition at 100 µM (β-amyloid (1–42) (Aβ42); [3]) [%]	IC50 ([1]; 50% reduction of ABTS radical cation) [nM]	ABTS^•+ Scavenging Activity, TEAC ([1]; Trolox equivalent, n.a. = not active)	IC50 (human erythrocyte AChE) [nM]	Ki (AChE) [nM]	Ki (eqBChE) [nM]	IC50 at 24 h (in vitro) [nM]	FRAP, TE (FRAP assay)	inhibition at 100 µM (β-amyloid (1–42) (Aβ42)) [%]
O=C(NCCCCCCCCNc1c2c(nc3ccccc13)CCCC2)c1ccccc1O [5c]	10.4 ± 1.3	29.5 ± 2.5	0.263 ± 0.018	0.0171 ± 0.0013	10.6 ± 0.7	14.2 ± 1.1	71.9 ± 5.7	25500 ± 1100	0.75 ± 0.04	–	–	–	–	–	–
COc1ccccc1C(=O)NCCCCCCCCNc1c2c(nc3ccccc13)CCCC2 [6c]	47.5 ± 3.2	10.6 ± 1.2	0.213 ± 0.012	0.0314 ± 0.0025	–	14.1 ± 0.9	55.6 ± 4.4	–	–	150 ± 11	104 ± 4	18.8 ± 1.1	3810 ± 70	–	–
COc1cc(F)c(F)cc1C(=O)NCCCCCCNc1c2c(nc3ccccc13)CCCC2 [8b]	70.2 ± 4.2	6.3 ± 0.9	–	–	–	13.8 ± 0.9	29.7 ± 2.3	–	–	712 ± 67	–	–	3950 ± 220	0.02	–
COc1cc(F)c(F)cc1C(=O)NCCCCCCCCNc1c2c(nc3ccccc13)CCCC2 [8c]	31.7 ± 2.4	19.8 ± 3.1	0.0998 ± 0.0058	0.0187 ± 0.0013	–	15.1 ± 1.2	54.1 ± 4.3	–	–	142 ± 11	53.6 ± 2.5	17.7 ± 0.7	–	0.02	–
Nc1c2c(nc3ccccc13)CCCC2 [Tacrine, reference compound]	–	–	–	–	–	–	–	–	–	–	–	–	3780 ± 150	–	5.9 ± 0.5
